Here are results for three substances from article PMC9319560 (Viruses, 2022).

In one series the test system is viral envelope. The conditions noted are these: previous studies; cited from earlier work.
The test system of series [1] is West Nile virus (WNV). The settings on record: for reduction in the viral titer (factor): WNV inoculum 10^5.27 TCID50/mL pre-incubated 1 h at 37 °C (legend: 2 h), residual titer on Vero cells, versus WNV incubated alone, 5 independent experiments.
Series [2] has as its system pro-inflammatory cytokine release. The conditions noted are these: cell-specific and concentration-dependent; cell supernatant; cited from earlier work.
The test system of a further series is viperin (RSAD2). Description: Viperin. Format: cell-based, human. The conditions noted are these: NHEK, WNV MOI 0.1, 48 h, immunofluorescence, 3 independent experiments.
In series [3] the test system is normal human epidermal keratinocytes (NHEK). Description: LDH release assay on NHEK. It counts as cell-based. The conditions noted are these: concentrations up to 10 µg/mL (1 to 20 µg/mL tested), 48 h per b34/b35 (24 h per b9), compared with non-treated cells, mean of at least 3 independent experiments. For orientation: Release of lactate dehydrogenase indicates damage to the cell membrane.

Series [4] concerns human primary keratinocytes (NHEK). Format: cell-based. The settings on record: 3 h, RT-qPCR; for pro-inflammatory effects of the peptide alone (mRNA of inflammatory markers): peptide alone 0.1, 1 and 10 µg/mL, 6 independent experiments (Figure S1).
For series [5], the system named is normal human epidermal keratinocytes (NHEK). Description: XTT cell viability assay on NHEK. It counts as cell-based. The settings on record: concentrations up to 10 µg/mL (1 to 20 µg/mL tested), 48 h incubation, compared with non-treated cells, mean of at least 3 independent experiments. In general terms: Formazan colour is commonly taken as a measure of viable cells.

The test system of series [6] is West Nile virus (WNV). Description: WNV RNA quantification by RT-qPCR in infected human primary keratinocytes. The settings on record: NHEK, WNV MOI 0.1, 24 h; for viral load in the cell monolayers: peptide 1 or 10 µg/mL added 1 h before infection, versus untreated; for effect on WNV replication in human primary keratinocytes: peptide 1 or 10 µg/mL, viral load in monolayer and supernatant by RT-qPCR. Format: cell-based. (Quantitative PCR measures a nucleic acid by following its amplification.)

Series [7] relates to human primary keratinocytes (NHEK) infected by WNV. Kind of series: Inflammatory marker mRNA expression in NHEK infected with WNV, RT-qPCR. Format: cell-based. The settings on record: WNV MOI 0.1, 24 h, 1 or 10 µg/mL peptide, versus WNV alone, similar trend, fold changes less marked, 5 independent experiments.
The next series concerns DENV. The conditions noted are these: pretreatment by 30 µg/mL of peptide; cited from earlier work.
Series [8] relates to human immunodeficiency virus. The conditions noted are these: concentration-dependent antiviral effect against human immunodeficiency virus; cited from earlier work.
The subject of series [9] is human primary keratinocytes (NHEK). Description: Inflammatory marker mRNA expression in NHEK stimulated with poly(I:C), RT-qPCR. The conditions noted are these: NHEK stimulated with 0.1 µg/mL poly(I:C) alone, 3 h. It counts as cell-based.
[10] abbreviates: 1 µg/mL peptide, versus WNV alone, p < 0.05.
Where [11] appears, read: whatever the concentration of the peptide (1 or 10 µg/mL).
[12] abbreviates: RT-qPCR, 5 independent experiments.

“Also recorded” adds a separate entry of the source. Read-outs that look alike come from different tables or passages of the source. No end group written: not given here.

Take LL-37: in the series on viral envelope, the “concentration from which degradation of the viral envelope was observed” value was not below 10 µg/mL. Further, the “reduction in the viral titer (factor)” value in the series with West Nile virus (WNV) [1] (1 µg/mL peptide) turned out to be 14; in the series with West Nile virus (WNV) [1] (10 µg/mL peptide) it was 95. Moreover, in the series on West Nile virus (WNV) [1] (WNV strain incubated with peptide, concentration not given), the “reduction in the viral infectious titer” value was 2 log10. Moreover, the “concentration from which decreased pro-inflammatory cytokine release was seen” value in series [2] is not below 25 µg/mL. Further, the figures for the RSAD2 protein expression result with viperin (RSAD2) (setting [10]) and in the series with viperin (RSAD2) (setting [11]) were “significantly increased” and “enhanced”, respectively. The “keratinocyte viability (LDH release)” value in [3] is reported as “greater than or equal to 90%”. Moreover, the “pro-inflammatory effects of the peptide alone (mRNA of inflammatory markers)” value in series [4] was “no significant pro-inflammatory effects”. Besides, the “keratinocyte viability (XTT)” value in series [5] was “greater than or equal to 90%”. For the same substance, in the series on West Nile virus (WNV) [6] (10 µg/mL peptide added 1 h before infection, RT-qPCR, versus untreated cells, 5 independent experiments, p < 0.05), the “decrease of viral RNA in the cell supernatant” value turned out to be 5.5 fold. In addition, the “viral load in the cell monolayers” value in the series with West Nile virus (WNV) [6] (setting [12]) is “No significant difference”. Moreover, the “effect on WNV replication in human primary keratinocytes” value in the series on West Nile virus (WNV) [6] is recorded as “inhibits WNV replication”. In series [7], the “expression of ISGs and inflammatory markers (mRNA) during WNV infection” value was “not significant”.

In the case of “hBD-3 (GIINTLQKYYCRVRGGRCAVLSCLPKEEQIGKCSTRGRKCCRRKK; ends and bridges not checked; cysteine pairing not given here; UniProt P81534 23-67, looked up) [type 3 human β-defensin, skin antimicrobial peptide; purchased from PeproTech]”, the RSAD2 protein expression entry is “significantly increased” in the series on viperin (RSAD2) (setting [10]) and “enhanced” in the series on viperin (RSAD2) (setting [11]). Moreover, the DENV titer result in the series on DENV is “did not result in a significant decrease”. Besides, the “keratinocyte viability (LDH release)” value in series [3] was “greater than or equal to 90%”. Also, in [4] (10 µg/mL peptide alone, p < 0.05 (Figure S1)), the “CXCL-8 mRNA expression, peptide alone” value is “notable exception”. Also, the “pro-inflammatory effects of the peptide alone (mRNA of inflammatory markers)” value in series [4] is given as “no significant pro-inflammatory effects”. Moreover, the “keratinocyte viability (XTT)” value in series [5] is on record as “greater than or equal to 90%”. Besides, the “viral load in the cell monolayers” value with West Nile virus (WNV) [6] (setting [12]) is listed as “No significant difference”. Further, the “effect on WNV replication in human primary keratinocytes” value in the series on West Nile virus (WNV) [6] was “does not seem to have any effect; also recorded: not reduced”. The “concentration at which the antiviral effect is significant” value in [8] was “greater than 25 µg/mL”.

In the case of poly(I:C), in [9], the “inflammatory response of NHEK” value is reported as “elicited an inflammatory response”.
